The test system of series [1] is P. falciparum Dd2 Cytb F123L. The series can be described thus: SYBR Green ABS proliferation assay, NCGC00473217 selected clone G08. It is filed as cell-based, Plasmodium falciparum. As to conditions: Plasmodium falciparum, DD2, NCGC00473217 selected clone G08; highest concentration 29 µM; read-out: AC50 [μM], Cytb F123L (converted). An outline of the steps: (§1)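 72 h SYBR Green-I read; % response = relative growth vs controls. Clones from resistance selection, cloned by limiting dilution; 37 °C, 5% CO2/5% O2/90% N2.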

Series [2] is described as follows: Rat liver microsomal stability (RLMS). To be noted: rat, rat liver microsomes. As to the method: (§2) Pharmacokinetic modeling experiments, parallel artificial membrane permeability assay (PAMPA), solubility, and rat liver microsome stability assessment were performed on all synthetic compounds, as previously described[73]–[75].
(Liver microsomes are a subcellular fraction often used to study metabolism.)

For series [3], the system named is P. falciparum Dd2 Cytb A122D. Description: SYBR Green ABS proliferation assay, NCGC00473217 selected clone F12. Format: cell-based, Plasmodium falciparum. To be noted: Plasmodium falciparum. An outline of the steps: as §1
A further series can be described thus: Aqueous solubility. It is filed as physicochemical. As to conditions: aqueous media. The method, then: as §2
Series [4] can be described thus: Parallel artificial membrane permeability assay (PAMPA). Format: in vitro ADME. As to conditions: for PAMPA pH7.4: pH 7.4. The method, then: as §2
In general terms: The PAMPA barrier holds no transporters, so it reflects passive diffusion.

Series [5] has as its system P. falciparum Dd2 Cytb G131S. Description: SYBR Green ABS proliferation assay, NCGC00374598 selected clone C11. Format: cell-based, Plasmodium falciparum. To be noted: Plasmodium falciparum. An outline of the steps:
as §1

For series [6], the system named is P. falciparum Dd2 (clone B2) asexual blood stage parasites. The series can be described thus: P. falciparum Dd2 asexual blood stage SYBR Green-I 72 h proliferation assay (qHTS). Format: cell-based, Plasmodium falciparum. As to conditions: Plasmodium falciparum, DD2, 72 h, SYBR Green 72 h.
Series [7] deals with P. falciparum Dd2 Cytb V259L. The series can be described thus: SYBR Green ABS proliferation assay, NCGC00473217 selected clone F06. Format: cell-based, Plasmodium falciparum. As to conditions: Plasmodium falciparum. In short, it runs like this:
as §1

Setting [8] is: DD2, NCGC00473217 selected clone F12, read-out: AC50 [μM], Cytb A122D (converted).
[9] abbreviates: DD2, NCGC00374598 selected clone C11, read-out: AC50 [μM], Cytb G131S (converted).
The mark [10] stands for this setting: DD2, NCGC00374598 selected clone, read-out: AC50 Log[M] ± SD, Cytb G131S (converted).
The mark [11] stands for this setting: WT Dd2-B2, read-out: AC50 Log[M] ± SD, Dd2-B2 (parental line) (converted).
Setting [12] is: approximate value in μM, read-out: AC50 [μM], Dd2-B2 (parental line) (converted).
Setting [13] is: DD2, NCGC00473217 selected clone F06, read-out: AC50 [μM], Cytb V259L (converted).
The mark [14] stands for this setting: DD2, NCGC00473217 selected clone, read-out: AC50 Log[M] ± SD, Cytb V259L (converted).

Molecules are shown by their SMILES. Converted amounts (≈) assume the structure as drawn. Read-outs that look alike come from different tables or passages of the source. Where only a bound is given, the exact number is not on record here.

What is called AC50 is the midpoint of the concentration-response curve, whichever way the signal moves. What is called half-life is how long it takes for the measured level to halve. A higher half-life goes with slow loss. Broadly, the solubility is how much of the substance goes into solution per volume. Low values mean a poorly soluble substance, high ones a readily soluble substance. For the compound `CCCN1C(CC(C)C)=NS(=O)(=O)c2cc(NC(=O)c3ccsc3)ccc21` [NCGC00521157], the half-maximal activity concentration (AC50) in series [1] is over 29 µM; in series [3] (setting [8]), over 29 µM; in series [5] (setting [9]) it was 2.08 µM; in series [5] (setting [10]) it was 2.09 µM; in series [6] (setting [11]) it was 2e-06 M; in series [6] (setting [12]), 2e-06 M. The AC50 in series [7] (setting [13]) is over 29 µM. In series [2], this compound had a half-life of 3.7 min. Besides, the solubility in the series “Aqueous solubility” is under 1 µg/mL. For the same compound, in series [4], the “PAMPA pH7.4” value is listed as 178 1e-6 cm/s.
Turning to `CC(C)CC1=NS(=O)(=O)c2cc(NC(=O)c3cccs3)ccc2N1C` [NCGC00521057], the AC50 in series [1] was over 29 µM; in series [3] (setting [8]), over 29 µM; in series [5] (setting [9]) it was 0.225 µM; in series [5] (setting [10]) it was 0.224 µM; in series [6] (setting [11]), 1.86e-06 M; in series [6] (setting [12]) it was 1.85e-06 M. For the same compound, in series [7] (setting [13]), the AC50 is over 29 µM. The compound also displayed a half-life in series [2] of over 30 min. Moreover, the concentration in solution in “Aqueous solubility” (solubility) came to 1.6 µg/mL (≈ 4.24 µM). Also, in series [4], the PAMPA permeability result is reported as “low permeability”. Moreover, the “PAMPA pH7.4” value in series [4] is reported as 130 1e-6 cm/s.
Turning to `CCCN1C(CC2CCC2)=NS(=O)(=O)c2cc(NC(=O)c3cccs3)ccc21` [NCGC00537664], the AC50 in series [1] was over 29 µM; in series [3] (setting [8]), 1.35 µM; in series [3] (DD2, NCGC00473217 selected clone, read-out: AC50 Log[M] ± SD, Cytb A122D (converted)) it was 1.35 µM; in series [5] (setting [9]), 0.466 µM; in series [5] (setting [10]), 0.468 µM; in series [6] (setting [11]), 4.47e-07 M. Further, the half-maximal activity concentration (AC50) in series [6] (setting [12]) is 4.48e-07 M; in series [7] (setting [13]), 1.19 µM; in series [7] (setting [14]), 1.2 µM. The compound also registered a half-life in series [2] of 4.3 min. The solubility in the series “Aqueous solubility” was under 1 µg/mL.
Regarding `CN1C(CC2CCCCC2)=NS(=O)(=O)c2cc(NC(=O)c3ccc(F)cc3)ccc21` [NCGC00651716], the half-maximal activity concentration (AC50) in series [1] is over 29 µM; in series [3] (setting [8]), over 29 µM; in series [5] (setting [9]) it was over 29 µM; in series [6] (setting [12]) it was over 2.9e-05 M; in series [7] (setting [13]) it was over 29 µM. Moreover, the half-life in series [2] stood at 6.6 min. Besides, the solubility in “Aqueous solubility” was under 1 µg/mL.
`CCCN1C(CC(C)C)=NS(=O)(=O)c2cc(NC(=O)c3ccc(Cl)cc3)ccc21` [NCGC00531775]: the AC50 is over 29 µM in series [1]; over 29 µM in series [3] (setting [8]); 0.2 µM in series [5] (setting [9]); 0.2 µM in series [5] (setting [10]); 1.26e-06 M in series [6] (setting [11]); 1.26e-06 M in series [6] (setting [12]). Further, the AC50 in series [7] (setting [13]) was over 29 µM. In series [2], this compound displayed a half-life of 4.1 min. In “Aqueous solubility”, this compound gave a solubility of under 1 µg/mL.
Regarding `CN1C(CC2CCCCC2)=NS(=O)(=O)c2cc(NC(=O)c3ccc(F)s3)ccc21` [NCGC00651709], the AC50 in series [1] was over 29 µM; in series [3] (setting [8]) it was over 29 µM; in series [5] (setting [9]), over 29 µM; in series [6] (setting [11]), 1.48e-06 M; in series [6] (setting [12]), 1.5e-06 M; in series [7] (setting [13]), over 29 µM. The half-life in series [2] was 12.9 min. The solubility in the series “Aqueous solubility” was under 1 µg/mL.
As for `CCCN1C(CC(C)C)=NS(=O)(=O)c2cc(NC(=O)c3ccc(Cl)s3)ccc21` [NCGC00523535], the AC50 in series [1] is over 29 µM; in series [3] (setting [8]) it was over 29 µM; in series [5] (setting [9]) it was 1 µM; in series [5] (setting [10]), 1 µM; in series [6] (setting [11]), 1.51e-06 M; in series [6] (setting [12]), 1.53e-06 M. The AC50 in series [7] (setting [13]) was 7.1 µM; in series [7] (setting [14]), 7.08 µM. The compound further returned a half-life in series [2] of 3.8 min. The compound also gave a solubility in “Aqueous solubility” of under 1 µg/mL.
For the compound `CCCN1C(CC(C)C)=NS(=O)(=O)c2cc(NC(=O)c3ccc(F)cc3)ccc21` [NCGC00521139], the AC50 in series [1] was over 29 µM; in series [3] (setting [8]), over 29 µM; in series [5] (setting [9]), 0.355 µM; in series [5] (setting [10]), 0.355 µM; in series [6] (setting [11]) it was 5.25e-07 M; in series [6] (setting [12]), 5.23e-07 M. The AC50 in series [7] (setting [13]) was over 29 µM. Besides, the half-life in series [2] is 6.3 min. The compound further came in with a solubility in the series “Aqueous solubility” of under 1 µg/mL.

The record behind these values is paper PMC7822874, “Chemoprotective antimalarials identified through quantitative high-throughput screening of Plasmodium blood and liver stage parasites” (Scientific Reports, 2021).
